Assay results as given in patent publication US8216800B2, “Substrates for detecting peptidase activity and methods using the substrates” (Biomerieux, priority 2007, dated 2012).

Assays:
Assay in all cases: Peptidase activity detection on Columbia agar containing substrate
Type in all cases: cell-based
[1] = test system: Pseudomonas aeruginosa NCTC 10662; design: key to fluorescence intensity: − = no fluorescence detected; e = trace of fluorescence; +/− = weak fluorescence; + = medium fluorescence; ++ = strong fluorescence; NG = No Growth; conditions: for fluorescence intensity: Pseudomonas aeruginosa NCTC 10662, substrate 100 mg/l, 24 hours at 37° C., UV 360-365 nm; for fluorescence produced: Pseudomonas aeruginosa strain
Method: (§1) 40 mg of each substrate are dissolved in 4 ml of dimethylformamide (DMF). This solution is completely taken up in 400 ml of Columbia agar autoclaved beforehand and kept molten at 50° C. The final concentration for each substrate is therefore 100 mg/l. Each of the media is distributed into 90 mm Petri dishes in a proportion of 20 ml per dish.
(§2) 18 microorganism strains derived from collections and belonging to various species of bacteria and of yeasts are inoculated onto these media by semi-quantitative isolation of 10 μl of a suspension at 0.5 McFarland diluted to 1/20. The media are incubated for 24 hours at 37° C., and then the colonies formed are examined visually under UV illumination at 360-365 nm.

[2] = test system: Burkholderia cepacia 1222; design: key to fluorescence intensity: − = no fluorescence detected; e = trace of fluorescence; +/− = weak fluorescence; + = medium fluorescence; ++ = strong fluorescence; NG = No Growth; conditions: for fluorescence intensity: Burkholderia cepacia 1222, substrate 100 mg/l, 24 hours at 37° C., UV 360-365 nm; for fluorescence produced: B. cepacia strain
Method: as §1, §2

[3] = test system: Bacillus subtilis NCTC 9372; design: key: − = no fluorescence detected; e = trace of fluorescence; +/− = weak fluorescence; + = medium fluorescence; ++ = strong fluorescence; NG = No Growth; conditions: substrate 100 mg/l, 24 hours at 37° C., UV 360-365 nm
Method: as §1, §2

[4] = test system: Staphylococcus epidermidis NCTC 11047; design: key: − = no fluorescence detected; e = trace of fluorescence; +/− = weak fluorescence; + = medium fluorescence; ++ = strong fluorescence; NG = No Growth; conditions: substrate 100 mg/l, 24 hours at 37° C., UV 360-365 nm
Method: as §1, §2

[5] = test system: Enterococcus faecium NCTC 11047; design: key: − = no fluorescence detected; e = trace of fluorescence; +/− = weak fluorescence; + = medium fluorescence; ++ = strong fluorescence; NG = No Growth; conditions: Enterococcus faecium NCTC 11047 (Table 2); substrate 100 mg/l, 24 hours at 37° C., UV 360-365 nm
Method: as §1, §2

[6] = test system: Salmonella Typhimurium NCTC 74; design: key: − = no fluorescence detected; e = trace of fluorescence; +/− = weak fluorescence; + = medium fluorescence; ++ = strong fluorescence; NG = No Growth; conditions: substrate 100 mg/l, 24 hours at 37° C., UV 360-365 nm
Method: as §1, §2

[7] = test system: Enterobacter cloacae NCTC 11936; design: key: − = no fluorescence detected; e = trace of fluorescence; +/− = weak fluorescence; + = medium fluorescence; ++ = strong fluorescence; NG = No Growth; conditions: substrate 100 mg/l, 24 hours at 37° C., UV 360-365 nm
Method: as §1, §2

[8] = test system: Escherichia coli NCTC 10418; design: key: − = no fluorescence detected; e = trace of fluorescence; +/− = weak fluorescence; + = medium fluorescence; ++ = strong fluorescence; NG = No Growth; conditions: substrate 100 mg/l, 24 hours at 37° C., UV 360-365 nm
Method: as §1, §2

[9] = test system: Providencia rettgeri NCTC 7475; design: key: − = no fluorescence detected; e = trace of fluorescence; +/− = weak fluorescence; + = medium fluorescence; ++ = strong fluorescence; NG = No Growth; conditions: substrate 100 mg/l, 24 hours at 37° C., UV 360-365 nm
Method: as §1, §2

[10] = test system: Candida albicans ATCC 90028; design: key: − = no fluorescence detected; e = trace of fluorescence; +/− = weak fluorescence; + = medium fluorescence; ++ = strong fluorescence; NG = No Growth; conditions: substrate 100 mg/l, 24 hours at 37° C., UV 360-365 nm
Method: as §1, §2

[11] = test system: Listeria monocytogenes NCTC 11994; design: key: − = no fluorescence detected; e = trace of fluorescence; +/− = weak fluorescence; + = medium fluorescence; ++ = strong fluorescence; NG = No Growth; conditions: substrate 100 mg/l, 24 hours at 37° C., UV 360-365 nm
Method: as §1, §2

[12] = test system: Staphylococcus aureus NCTC 6571; design: key: − = no fluorescence detected; e = trace of fluorescence; +/− = weak fluorescence; + = medium fluorescence; ++ = strong fluorescence; NG = No Growth; conditions: substrate 100 mg/l, 24 hours at 37° C., UV 360-365 nm
Method: as §1, §2

[13] = test system: Enterococcus faecalis NCTC 775; design: key: − = no fluorescence detected; e = trace of fluorescence; +/− = weak fluorescence; + = medium fluorescence; ++ = strong fluorescence; NG = No Growth; conditions: substrate 100 mg/l, 24 hours at 37° C., UV 360-365 nm
Method: as §1, §2

[14] = test system: Streptococcus pyogenes NCTC 8306; design: key: − = no fluorescence detected; e = trace of fluorescence; +/− = weak fluorescence; + = medium fluorescence; ++ = strong fluorescence; NG = No Growth; conditions: substrate 100 mg/l, 24 hours at 37° C., UV 360-365 nm
Method: as §1, §2

[15] = test system: Staphylococcus aureus NCTC 11939; design: key: − = no fluorescence detected; e = trace of fluorescence; +/− = weak fluorescence; + = medium fluorescence; ++ = strong fluorescence; NG = No Growth; conditions: Staphylococcus aureus (MRSA) NCTC 11939; substrate 100 mg/l, 24 hours at 37° C., UV 360-365 nm
Method: as §1, §2

[16] = test system: Candida glabrata NCPF3943; design: key: − = no fluorescence detected; e = trace of fluorescence; +/− = weak fluorescence; + = medium fluorescence; ++ = strong fluorescence; NG = No Growth; conditions: substrate 100 mg/l, 24 hours at 37° C., UV 360-365 nm
Method: as §1, §2

[17] = test system: Serratia marcescens NCTC 10211; design: key: − = no fluorescence detected; e = trace of fluorescence; +/− = weak fluorescence; + = medium fluorescence; ++ = strong fluorescence; NG = No Growth; conditions: substrate 100 mg/l, 24 hours at 37° C., UV 360-365 nm
Method: as §1, §2

[18] = test system: Enterococcus faecium NCTC 7171; design: key: − = no fluorescence detected; e = trace of fluorescence; +/− = weak fluorescence; + = medium fluorescence; ++ = strong fluorescence; NG = No Growth; conditions: Enterococcus faecium NCTC 7171 (Table 3); substrate 100 mg/l, 24 hours at 37° C., UV 360-365 nm
Method: as §1, §2

[19] = test system: Citrobacter freundii 46262 (wild); design: key: − = no fluorescence detected; e = trace of fluorescence; +/− = weak fluorescence; + = medium fluorescence; ++ = strong fluorescence; NG = No Growth; conditions: substrate 100 mg/l, 24 hours at 37° C., UV 360-365 nm
Method: as §1, §2

[20] = test system: Morganella morganii 462403 (wild); design: key: − = no fluorescence detected; e = trace of fluorescence; +/− = weak fluorescence; + = medium fluorescence; ++ = strong fluorescence; NG = No Growth; conditions: substrate 100 mg/l, 24 hours at 37° C., UV 360-365 nm
Method: as §1, §2

[21] = test system: Yersinia enterocolitica NCTC 11176; design: key: − = no fluorescence detected; e = trace of fluorescence; +/− = weak fluorescence; + = medium fluorescence; ++ = strong fluorescence; NG = No Growth; conditions: substrate 100 mg/l, 24 hours at 37° C., UV 360-365 nm
Method: as §1, §2

[22] = test system: Staphylococcus aureus strains; conditions: the two Staphylococcus aureus strains
Method: as §1, §2

| Compound | fluorescence intensity [1] | fluorescence intensity [2] | fluorescence intensity [3] | fluorescence intensity [5] | fluorescence intensity [6] | fluorescence intensity [7] | fluorescence intensity [11] | fluorescence intensity [13] | fluorescence intensity [14] | fluorescence intensity [17] | fluorescence intensity [4] | fluorescence intensity [8] | fluorescence intensity [9] | fluorescence intensity [10] | fluorescence intensity [12] | fluorescence intensity [15] | fluorescence intensity [16] | fluorescence intensity [21] | also measured |
| --- | --- | --- | --- | --- | --- | --- | --- | --- | --- | --- | --- | --- | --- | --- | --- | --- | --- | --- | --- |
| C[C@H](N)C(=O)Nc1ccccc1-c1nc2cc(Cl)ccc2o1 [Substrate 4] | +/− | − | NG | − | NG | + | − | +/− | − | ++ | − | NG^2 | + | − | − | − | − | + | fluorescence produced [1]: weak violet fluorescence; fluorescence produced [22]: no fluorescence was detected |
| NCCC(=O)Nc1ccccc1-c1nc2ccccc2o1 [Substrate 2] | + | + | NG | +/− | − | + | ε | +/− | NG | + | − | + | +/− | − | − | − | − | +/− | fluorescence produced [2]: green fluorescence |
| NCC(=O)Nc1ccccc1-c1nc2ccccc2o1 [Substrate 3] | +/− | + | +/− | NG | − | ++ | +/− | − | NG | ++ | NG | ++ | ++ | NG | + | + | NG | +/− | fluorescence produced [2]: medium blue fluorescence |

Second part, led by results:

| fluorescence intensity [1] | fluorescence intensity [2] | fluorescence intensity [3] | fluorescence intensity [5] | fluorescence intensity [6] | fluorescence intensity [7] | fluorescence intensity [11] | fluorescence intensity [13] | fluorescence intensity [14] | fluorescence intensity [17] | Compound | fluorescence intensity [4] | fluorescence intensity [8] | fluorescence intensity [9] | fluorescence intensity [10] | fluorescence intensity [12] | fluorescence intensity [15] | fluorescence intensity [16] | fluorescence intensity [21] | also measured |
| --- | --- | --- | --- | --- | --- | --- | --- | --- | --- | --- | --- | --- | --- | --- | --- | --- | --- | --- | --- |
| − | − | − | − | +/− | + | − | − | NG | − | C[C@H](N)C(=O)Nc1ccc(Cl)cc1-c1nc2ccccc2s1 [Substrate 19] | NG | + | + | NG | − | − | NG |  | fluorescence produced [1]: negative |
| − | ++ | − |  | ++ | ++ | − | − | − | ++ | C[C@H](N)C(=O)Nc1cc2c(cc1-c1nc3ccccc3n1CCc1ccccc1)OCO2 [Substrate 16] | − | ++ | ++ | − | − | − | − | − | fluorescence intensity [18]: −; fluorescence intensity [19]: ++; fluorescence intensity [20]: + |
| +/− | + | − | +/− | + | + | +/− | +/− | − | + | COc1cc(NC(=O)CCN)c(-c2nc3ccccc3o2)cc1OC [Substrate 11] | − | + | + | − | + | − | − | +/− |  |
| ++ | NG | NG | NG | NG | NG | NG | NG | NG | ++ | NCCC(=O)Nc1ccccc1-c1nc2ccccc2s1 [Substrate 18] | NG | ++ | NG | NG | NG | NG | NG | NG |  |
